The values that follow come from publication PMC6199744, “Development of Chemical Proteomics for the Folateome and Analysis of the Kinetoplastid Folateome” (ACS Infectious Diseases, 2018).

What all share (assay type): binding
Experiment [1] concerns the target T1, HeLa cell extract proteins (Homo sapiens, UniProt P05455).
T1 construct: endogenous in cells; host or cells: HeLa cell extract
T1 sequence (P05455 1-408): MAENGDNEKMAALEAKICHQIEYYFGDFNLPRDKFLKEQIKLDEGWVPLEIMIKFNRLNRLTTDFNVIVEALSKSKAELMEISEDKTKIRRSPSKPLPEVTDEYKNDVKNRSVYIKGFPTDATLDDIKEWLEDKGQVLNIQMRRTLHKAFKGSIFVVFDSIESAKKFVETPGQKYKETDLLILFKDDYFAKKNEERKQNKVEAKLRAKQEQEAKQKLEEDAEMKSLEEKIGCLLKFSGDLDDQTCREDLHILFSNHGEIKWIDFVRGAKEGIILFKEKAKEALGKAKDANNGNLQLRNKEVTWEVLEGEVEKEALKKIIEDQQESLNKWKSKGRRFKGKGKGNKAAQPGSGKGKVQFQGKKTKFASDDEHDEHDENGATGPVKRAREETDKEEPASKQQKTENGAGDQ

Experiment [2] addresses T2, HeLa cell extract proteins (Homo sapiens, UniProt Q96LA8).
T2 construct: endogenous in cells; host or cells: HeLa cell extract

Experiment [3] has as its target T3, HeLa cell extract proteins (Homo sapiens, UniProt Q6UXN9).
T3 construct: endogenous in cells; host or cells: HeLa cell extract

Experiment [4] concerns the target T4, HeLa cell extract proteins (Homo sapiens, UniProt P35573).
T4 construct: endogenous in cells; host or cells: HeLa cell extract

Experiment [5] deals with T5, HeLa cell extract proteins (Homo sapiens, UniProt P14618).
T5 construct: endogenous in cells; host or cells: HeLa cell extract
T5 sequence (P14618 whole entry): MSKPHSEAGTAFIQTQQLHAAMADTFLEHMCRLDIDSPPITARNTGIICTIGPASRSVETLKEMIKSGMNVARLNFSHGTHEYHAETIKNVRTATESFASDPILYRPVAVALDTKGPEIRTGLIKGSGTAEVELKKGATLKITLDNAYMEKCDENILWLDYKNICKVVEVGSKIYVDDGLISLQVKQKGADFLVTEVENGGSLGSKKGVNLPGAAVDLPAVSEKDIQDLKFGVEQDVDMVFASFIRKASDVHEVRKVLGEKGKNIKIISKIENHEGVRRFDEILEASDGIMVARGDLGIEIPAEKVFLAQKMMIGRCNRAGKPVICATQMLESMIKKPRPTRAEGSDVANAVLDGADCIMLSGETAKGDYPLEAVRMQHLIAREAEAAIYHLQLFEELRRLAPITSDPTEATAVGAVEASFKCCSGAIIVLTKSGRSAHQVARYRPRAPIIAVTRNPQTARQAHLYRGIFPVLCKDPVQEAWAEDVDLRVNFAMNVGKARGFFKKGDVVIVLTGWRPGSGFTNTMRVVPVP

Experiment [6] concerns the target T6, HeLa cell extract proteins (Homo sapiens, UniProt Q9Y3F4).
T6 construct: endogenous in cells; host or cells: HeLa cell extract
T6 sequence (Q9Y3F4 1-350): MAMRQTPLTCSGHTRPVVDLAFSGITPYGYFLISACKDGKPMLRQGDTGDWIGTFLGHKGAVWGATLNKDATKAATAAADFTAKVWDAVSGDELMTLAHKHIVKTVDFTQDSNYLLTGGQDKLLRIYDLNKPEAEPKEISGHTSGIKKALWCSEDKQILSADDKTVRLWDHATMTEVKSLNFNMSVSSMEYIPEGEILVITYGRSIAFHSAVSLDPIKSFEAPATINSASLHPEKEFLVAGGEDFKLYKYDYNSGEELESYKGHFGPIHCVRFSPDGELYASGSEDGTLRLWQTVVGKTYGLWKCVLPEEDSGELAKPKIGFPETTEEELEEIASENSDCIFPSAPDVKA

The target in experiment [7] is T7, HeLa cell extract proteins (Homo sapiens, UniProt P33993).
T7 construct: endogenous in cells; host or cells: HeLa cell extract
T7 sequence (P33993 whole entry): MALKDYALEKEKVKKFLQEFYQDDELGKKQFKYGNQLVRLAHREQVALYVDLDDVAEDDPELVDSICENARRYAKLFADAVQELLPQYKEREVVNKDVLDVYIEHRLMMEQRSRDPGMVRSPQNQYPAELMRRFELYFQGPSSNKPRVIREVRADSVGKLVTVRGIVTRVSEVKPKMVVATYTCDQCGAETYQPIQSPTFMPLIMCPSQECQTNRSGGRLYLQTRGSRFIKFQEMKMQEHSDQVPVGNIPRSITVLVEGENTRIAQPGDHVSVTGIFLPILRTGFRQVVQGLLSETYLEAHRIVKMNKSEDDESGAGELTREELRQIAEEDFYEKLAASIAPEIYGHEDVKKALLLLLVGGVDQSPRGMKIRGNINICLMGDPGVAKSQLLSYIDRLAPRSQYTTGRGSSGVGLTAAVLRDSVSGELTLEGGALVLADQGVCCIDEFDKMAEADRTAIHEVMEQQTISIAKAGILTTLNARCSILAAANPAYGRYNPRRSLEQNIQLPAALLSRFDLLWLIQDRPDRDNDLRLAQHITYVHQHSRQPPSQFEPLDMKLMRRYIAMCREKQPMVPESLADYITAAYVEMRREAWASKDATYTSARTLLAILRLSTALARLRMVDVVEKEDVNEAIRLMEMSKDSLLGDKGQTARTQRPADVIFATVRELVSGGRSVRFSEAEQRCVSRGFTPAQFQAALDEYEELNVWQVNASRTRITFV

Experiment [8] deals with T8, HeLa cell extract proteins (Homo sapiens, UniProt Q9Y6E2).
T8 construct: endogenous in cells; host or cells: HeLa cell extract
T8 sequence (Q9Y6E2 1-419): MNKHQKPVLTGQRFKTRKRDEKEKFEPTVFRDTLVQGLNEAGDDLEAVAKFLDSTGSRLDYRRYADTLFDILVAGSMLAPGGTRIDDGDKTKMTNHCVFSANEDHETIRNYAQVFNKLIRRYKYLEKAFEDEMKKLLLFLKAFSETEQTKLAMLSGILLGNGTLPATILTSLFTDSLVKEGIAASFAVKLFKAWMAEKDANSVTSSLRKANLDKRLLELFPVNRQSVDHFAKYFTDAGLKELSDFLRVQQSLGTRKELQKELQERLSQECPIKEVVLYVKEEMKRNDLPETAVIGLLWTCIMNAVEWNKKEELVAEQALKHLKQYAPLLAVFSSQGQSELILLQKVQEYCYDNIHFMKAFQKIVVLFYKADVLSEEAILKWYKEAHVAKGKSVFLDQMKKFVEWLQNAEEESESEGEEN

Experiment [9] addresses T9, HeLa cell extract proteins (Homo sapiens, UniProt P08865).
T9 construct: endogenous in cells; host or cells: HeLa cell extract

The target of experiment [10] is T10, HeLa cell extract proteins (Homo sapiens, UniProt P62820).
T10 construct: endogenous in cells; host or cells: HeLa cell extract
T10 sequence (P62820 whole entry): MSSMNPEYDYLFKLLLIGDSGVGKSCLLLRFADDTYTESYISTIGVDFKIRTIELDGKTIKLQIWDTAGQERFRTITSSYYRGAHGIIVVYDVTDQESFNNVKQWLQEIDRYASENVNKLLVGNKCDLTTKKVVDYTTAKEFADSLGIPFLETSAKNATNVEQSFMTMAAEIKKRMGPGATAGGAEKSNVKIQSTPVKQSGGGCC

Experiment [11] deals with T11, HeLa cell extract proteins (Homo sapiens, UniProt Q3ZCQ8).
T11 construct: endogenous in cells; host or cells: HeLa cell extract
T11 sequence (Q3ZCQ8 45-353): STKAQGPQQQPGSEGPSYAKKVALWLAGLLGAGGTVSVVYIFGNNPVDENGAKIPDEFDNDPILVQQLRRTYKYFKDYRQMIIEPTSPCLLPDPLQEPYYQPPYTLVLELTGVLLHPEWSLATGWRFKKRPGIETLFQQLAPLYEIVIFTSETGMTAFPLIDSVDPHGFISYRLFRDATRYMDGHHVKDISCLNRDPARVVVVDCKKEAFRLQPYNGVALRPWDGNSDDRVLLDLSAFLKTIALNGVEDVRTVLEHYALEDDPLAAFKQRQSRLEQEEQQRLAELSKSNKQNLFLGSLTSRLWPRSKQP

Experiment [12] has as its target T12, HeLa cell extract proteins (Homo sapiens, UniProt P00505).
T12 construct: endogenous in cells; host or cells: HeLa cell extract
T12 sequence (P00505 30-430): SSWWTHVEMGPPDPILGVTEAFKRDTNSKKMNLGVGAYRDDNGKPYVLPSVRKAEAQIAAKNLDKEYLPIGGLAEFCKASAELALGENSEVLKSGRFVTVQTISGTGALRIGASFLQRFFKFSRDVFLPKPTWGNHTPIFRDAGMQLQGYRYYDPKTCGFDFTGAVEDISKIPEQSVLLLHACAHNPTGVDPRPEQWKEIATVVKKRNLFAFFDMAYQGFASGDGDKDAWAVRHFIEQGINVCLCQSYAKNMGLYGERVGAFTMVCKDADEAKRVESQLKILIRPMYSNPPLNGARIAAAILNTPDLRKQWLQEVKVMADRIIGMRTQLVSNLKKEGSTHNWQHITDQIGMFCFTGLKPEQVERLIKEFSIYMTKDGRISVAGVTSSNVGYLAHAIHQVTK

The target in experiment [13] is T13, HeLa cell extract proteins (Homo sapiens, UniProt Q9H773).
T13 construct: endogenous in cells; host or cells: HeLa cell extract
T13 sequence (Q9H773 1-170): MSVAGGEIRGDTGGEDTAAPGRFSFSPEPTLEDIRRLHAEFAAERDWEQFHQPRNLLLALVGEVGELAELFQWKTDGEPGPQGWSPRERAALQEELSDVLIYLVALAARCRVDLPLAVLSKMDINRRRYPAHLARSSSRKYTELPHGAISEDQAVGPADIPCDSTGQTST

Experiment [14] deals with T14, HeLa cell extract proteins (Homo sapiens, UniProt Q04837).
T14 construct: endogenous in cells; host or cells: HeLa cell extract
T14 sequence (Q04837 17-148): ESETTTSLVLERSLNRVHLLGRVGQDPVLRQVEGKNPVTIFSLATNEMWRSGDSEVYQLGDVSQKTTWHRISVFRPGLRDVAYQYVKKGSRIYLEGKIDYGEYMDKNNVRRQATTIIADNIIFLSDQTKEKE

Experiment [15] addresses T15, HeLa cell extract proteins (Homo sapiens, UniProt P62333).
T15 construct: endogenous in cells; host or cells: HeLa cell extract

[16] abbreviates: HeLa, protein SSB (LUPUS LA PROTEIN.).
Setting [17] is: HeLa, protein PKM2 (CDNA FLJ56065, HIGHLY SIMILAR TO PYRUVATE KINASE ISOZYME M1.).

Where two headings read alike, the source gives them in different places.

T15 sequence (P62333 whole entry): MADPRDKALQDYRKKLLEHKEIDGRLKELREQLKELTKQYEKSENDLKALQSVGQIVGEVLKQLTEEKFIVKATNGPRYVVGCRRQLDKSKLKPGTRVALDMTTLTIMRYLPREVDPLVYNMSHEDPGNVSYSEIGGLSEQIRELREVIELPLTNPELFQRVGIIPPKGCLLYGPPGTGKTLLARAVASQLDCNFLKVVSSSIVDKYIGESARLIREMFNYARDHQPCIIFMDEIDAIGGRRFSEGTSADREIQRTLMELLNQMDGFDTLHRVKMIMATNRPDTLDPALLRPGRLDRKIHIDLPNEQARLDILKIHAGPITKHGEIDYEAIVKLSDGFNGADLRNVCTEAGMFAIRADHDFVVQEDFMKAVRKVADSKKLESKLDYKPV
T4 sequence (P35573 whole entry): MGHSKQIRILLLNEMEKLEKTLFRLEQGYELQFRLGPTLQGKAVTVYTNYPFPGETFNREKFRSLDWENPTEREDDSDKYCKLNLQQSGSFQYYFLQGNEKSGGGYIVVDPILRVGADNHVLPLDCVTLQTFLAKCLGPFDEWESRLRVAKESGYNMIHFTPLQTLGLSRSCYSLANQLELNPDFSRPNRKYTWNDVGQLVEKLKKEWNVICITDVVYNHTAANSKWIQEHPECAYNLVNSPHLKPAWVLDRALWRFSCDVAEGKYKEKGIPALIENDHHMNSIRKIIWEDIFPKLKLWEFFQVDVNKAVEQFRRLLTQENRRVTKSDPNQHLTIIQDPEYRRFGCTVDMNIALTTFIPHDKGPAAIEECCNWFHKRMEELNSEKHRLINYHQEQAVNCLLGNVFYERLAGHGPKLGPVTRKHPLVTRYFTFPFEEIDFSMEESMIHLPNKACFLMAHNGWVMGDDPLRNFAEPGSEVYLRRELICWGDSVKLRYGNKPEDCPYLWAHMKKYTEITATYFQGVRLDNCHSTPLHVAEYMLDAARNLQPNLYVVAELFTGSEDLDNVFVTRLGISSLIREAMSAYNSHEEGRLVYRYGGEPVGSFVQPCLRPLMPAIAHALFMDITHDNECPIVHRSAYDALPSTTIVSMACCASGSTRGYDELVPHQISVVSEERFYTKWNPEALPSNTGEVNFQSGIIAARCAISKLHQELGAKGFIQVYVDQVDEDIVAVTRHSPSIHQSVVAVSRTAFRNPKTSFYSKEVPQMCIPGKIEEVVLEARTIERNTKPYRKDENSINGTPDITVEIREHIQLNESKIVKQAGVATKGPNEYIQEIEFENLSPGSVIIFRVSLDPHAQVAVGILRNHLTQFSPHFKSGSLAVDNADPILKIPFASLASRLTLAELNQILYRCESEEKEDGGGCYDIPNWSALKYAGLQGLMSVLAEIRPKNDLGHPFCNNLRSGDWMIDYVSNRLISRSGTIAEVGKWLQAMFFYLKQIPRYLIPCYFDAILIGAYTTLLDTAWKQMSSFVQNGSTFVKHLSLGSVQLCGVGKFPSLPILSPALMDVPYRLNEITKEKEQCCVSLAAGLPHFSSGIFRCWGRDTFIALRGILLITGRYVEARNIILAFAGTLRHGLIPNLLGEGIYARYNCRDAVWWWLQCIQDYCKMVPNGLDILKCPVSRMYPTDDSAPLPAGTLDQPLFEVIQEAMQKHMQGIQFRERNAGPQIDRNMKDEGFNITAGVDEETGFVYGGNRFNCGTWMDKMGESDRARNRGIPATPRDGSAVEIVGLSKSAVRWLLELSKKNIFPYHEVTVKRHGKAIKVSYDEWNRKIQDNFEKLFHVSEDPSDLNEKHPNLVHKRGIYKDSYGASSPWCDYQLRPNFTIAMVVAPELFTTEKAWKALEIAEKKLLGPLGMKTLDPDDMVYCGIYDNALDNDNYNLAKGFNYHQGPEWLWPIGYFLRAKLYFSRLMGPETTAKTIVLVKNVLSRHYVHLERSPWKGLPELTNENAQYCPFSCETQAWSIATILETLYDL
T2 sequence (Q96LA8 whole entry): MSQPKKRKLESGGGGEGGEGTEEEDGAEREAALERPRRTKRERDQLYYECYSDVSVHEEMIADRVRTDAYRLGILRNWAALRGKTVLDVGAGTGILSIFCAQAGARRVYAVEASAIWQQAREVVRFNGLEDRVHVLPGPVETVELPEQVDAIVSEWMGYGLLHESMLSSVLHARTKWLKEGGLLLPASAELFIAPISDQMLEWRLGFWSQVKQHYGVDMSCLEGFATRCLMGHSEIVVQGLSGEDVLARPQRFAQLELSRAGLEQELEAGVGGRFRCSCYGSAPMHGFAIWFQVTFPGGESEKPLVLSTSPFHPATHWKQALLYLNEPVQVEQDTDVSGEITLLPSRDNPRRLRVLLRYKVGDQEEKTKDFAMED
T3 sequence (Q6UXN9 whole entry): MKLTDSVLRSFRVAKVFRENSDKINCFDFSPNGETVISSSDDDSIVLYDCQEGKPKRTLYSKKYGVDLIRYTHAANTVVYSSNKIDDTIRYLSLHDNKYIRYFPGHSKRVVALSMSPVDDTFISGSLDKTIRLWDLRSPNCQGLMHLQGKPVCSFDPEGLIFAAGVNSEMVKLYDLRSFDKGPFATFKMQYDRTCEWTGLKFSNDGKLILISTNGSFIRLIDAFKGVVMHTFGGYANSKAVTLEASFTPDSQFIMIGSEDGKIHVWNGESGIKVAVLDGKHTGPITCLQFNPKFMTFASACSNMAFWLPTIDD

For the compound `Nc1nc2c(c(=O)[nH]1)N(C=O)C(CNc1ccc(C(=O)N[C@@H](CCC(=O)O)C(=O)O)cc1)CN2` (stereo partly drawn) [LEU, leucovorin], the “fold changes relative to vehicle control” value is 1.03 in experiment [1] (HeLa, protein SSB); 1.17 in experiment [2] (HeLa, protein PRMT6 (PROTEIN ARGININE N-METHYLTRANSFERASE 6)); 0.8 in experiment [3] (HeLa, captured protein WDR82); 1.19 in [4] (HeLa, protein AGL (PUTATIVE UNCHA[…] AGL (FRAGMENT))); 1.03 in experiment [5] (HeLa, protein PKM2); 0.85 in [6] (protein STRAP, HeLa). Besides, the “fold changes relative to vehicle control” value in experiment [7] (protein MCM7, HeLa) came to 0.91; in [8] (HeLa, protein BZW2), 0.99; in experiment [9] (HeLa, protein RPSA), 0.87; in experiment [10] (HeLa, protein RAB1A) it was 1.2; in [11] (HeLa, protein TIMM50) it was 0.9; in experiment [12] (HeLa, protein GOT2) it was 0.94. The “fold changes relative to vehicle control” value in [13] (HeLa, protein XTP3TPA (XTP3-TRAN[…] A PROTEIN)) is 1.14; in experiment [14] (HeLa, protein SSBP1), 1.07; in experiment [15] (protein PSMC6, HeLa), 0.84.
Take `Nc1nc2[nH]cc(CCc3ccc(C(=O)N[C@@H](CCC(=O)O)C(=O)O)cc3)c2c(=O)[nH]1` [PTX, pemetrexed]: the “fold changes relative to vehicle control” value in experiment [1] came to 1.12; in experiment [2], 1.03; in experiment [3], 0.72; in experiment [4] it was 1.1; in experiment [5], 1.09; in experiment [6] it was 1. In addition, the “fold changes relative to vehicle control” value amounted to 0.96 in experiment [7]; 0.98 in [8]; 0.9 in [9]; 1.17 in experiment [10]; 0.87 in experiment [11]; 0.99 in [12]. Besides, the “fold changes relative to vehicle control” value in [13] was 1.09; in experiment [14], 1; in experiment [15], 0.92.
For the compound `CCCCCCOc1ccc(Cc2cnc(N)nc2N)cc1` [compound 1], the “fold changes relative to vehicle control” value in experiment [1] (setting [16]) amounted to 1.38 fold; in experiment [2] (protein PRMT6, HeLa), 1.01; in [3] (captured protein WDR82, HeLa) it was 0.75; in [4] (HeLa, protein AGL), 1.05; in experiment [5] (setting [17]), 1.45 fold; in experiment [6] (protein STRAP, HeLa) it was 1.07. For the same compound, the “fold changes relative to vehicle control” value was 1.06 in experiment [7] (protein MCM7, HeLa); 1.11 in experiment [8] (protein BZW2, HeLa); 0.97 in [9] (captured protein RPSA, HeLa); 0.74 in [10] (captured protein RAB1A, HeLa); 1 in experiment [11] (captured protein TIMM50, HeLa); 1.12 in [12] (protein GOT2, HeLa). Further, the “fold changes relative to vehicle control” value in experiment [13] (captured protein XTP3TPA, HeLa) stood at 0.91; in experiment [14] (HeLa, protein SSBP1), 1.05; in [15] (protein PSMC6, HeLa), 1.1.
With `CCCCCCOc1cccc(Cc2cnc(N)nc2N)c1` [compound 2], the “fold changes relative to vehicle control” value in experiment [1] (setting [16]) is listed as 2.04 fold; in [2] (protein PRMT6, HeLa), 0.89; in experiment [3] (captured protein WDR82, HeLa), 1.01; in experiment [4] (HeLa, protein AGL), 1.08; in experiment [5] (setting [17]), 2.57 fold; in experiment [6] (protein STRAP, HeLa), 1.28. Further, the “fold changes relative to vehicle control” value in experiment [7] (protein MCM7, HeLa) amounted to 1.47; in [8] (protein BZW2, HeLa), 1.57; in experiment [9] (captured protein RPSA, HeLa), 1.11; in experiment [10] (captured protein RAB1A, HeLa) it was 1.19; in experiment [11] (captured protein TIMM50, HeLa), 1.04; in [12] (protein GOT2, HeLa) it was 2.22. In addition, the “fold changes relative to vehicle control” value in experiment [13] (captured protein XTP3TPA, HeLa) came out at 0.73; in experiment [14] (HeLa, protein SSBP1) it was 0.95; in experiment [15] (protein PSMC6, HeLa), 1.57.
For the compound `Nc1nc2cccc(-c3ccccc3)c2n1Cc1ccc(Cl)c(Cl)c1` [compound 3], the “fold changes relative to vehicle control” value in experiment [1] (setting [16]) is reported as 1.01 fold; in experiment [2] (protein PRMT6, HeLa), 0.93; in experiment [3] (captured protein WDR82, HeLa), 0.9; in experiment [4] (HeLa, protein AGL) it was 1.13; in experiment [5] (setting [17]), 0.99 fold; in experiment [6] (protein STRAP, HeLa) it was 1.11. In addition, the “fold changes relative to vehicle control” value was 1.24 in experiment [7] (protein MCM7, HeLa); 0.93 in experiment [8] (protein BZW2, HeLa); 1.09 in experiment [9] (captured protein RPSA, HeLa); 0.91 in experiment [10] (captured protein RAB1A, HeLa); 0.99 in [11] (captured protein TIMM50, HeLa); 0.84 in [12] (protein GOT2, HeLa). Besides, the “fold changes relative to vehicle control” value in experiment [13] (captured protein XTP3TPA, HeLa) turned out to be 1.14; in experiment [14] (HeLa, protein SSBP1) it was 1; in experiment [15] (protein PSMC6, HeLa), 1.2.
